Reference: article PMC9133015 (Nature Communications, 2022)
Where “and” joins values, the source holds several entries; their conditions need not be identical. Equal entries are not always repeated. Where two headings read alike, the source gives them in different places.

Experiments:
Assay in all cases: Kinase inhibitor specificity profiling (Reaction Biology Corporation)
Format in all cases: biochemical
Design in all cases: % Enzyme Activity (relative to DMSO controls): concentration or dose not given beside the values
[1] = target: T1, panel of 370 protein kinases (Homo sapiens, UniProt P51957); details: 2 h, kinase NEK4; read-out: % Enzyme Activity (relative to DMSO controls)
T1 construct: purchased Reaction Biology Corporation (assay service)
T1 sequence (P51957 whole entry): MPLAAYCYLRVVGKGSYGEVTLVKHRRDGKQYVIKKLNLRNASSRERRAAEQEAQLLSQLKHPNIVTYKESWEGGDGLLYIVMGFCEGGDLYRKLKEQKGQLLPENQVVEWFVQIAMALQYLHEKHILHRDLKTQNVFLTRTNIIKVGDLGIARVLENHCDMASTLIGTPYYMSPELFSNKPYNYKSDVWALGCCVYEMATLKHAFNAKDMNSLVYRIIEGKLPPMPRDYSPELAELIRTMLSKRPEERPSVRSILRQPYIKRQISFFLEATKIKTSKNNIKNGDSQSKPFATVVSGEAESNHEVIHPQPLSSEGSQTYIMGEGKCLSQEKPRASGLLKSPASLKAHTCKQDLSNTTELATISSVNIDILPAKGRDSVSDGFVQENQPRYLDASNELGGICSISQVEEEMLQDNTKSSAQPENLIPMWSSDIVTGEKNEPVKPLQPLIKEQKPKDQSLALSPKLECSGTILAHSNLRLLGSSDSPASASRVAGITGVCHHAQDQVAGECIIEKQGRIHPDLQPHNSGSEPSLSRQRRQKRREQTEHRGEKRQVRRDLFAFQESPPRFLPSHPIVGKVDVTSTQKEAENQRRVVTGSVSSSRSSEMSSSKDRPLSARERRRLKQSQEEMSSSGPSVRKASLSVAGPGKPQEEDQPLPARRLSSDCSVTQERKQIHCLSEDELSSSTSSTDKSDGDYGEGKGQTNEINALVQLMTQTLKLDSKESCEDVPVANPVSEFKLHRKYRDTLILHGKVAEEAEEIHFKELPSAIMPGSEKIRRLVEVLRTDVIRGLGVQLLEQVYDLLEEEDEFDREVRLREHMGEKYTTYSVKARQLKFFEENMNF

[2] = target: T2, panel of 370 protein kinases (Homo sapiens, UniProt Q00534); details: 2 h, read-out: % Enzyme Activity (relative to DMSO controls)
T2 construct: purchased Reaction Biology Corporation (assay service)
T2 sequence (Q00534 whole entry): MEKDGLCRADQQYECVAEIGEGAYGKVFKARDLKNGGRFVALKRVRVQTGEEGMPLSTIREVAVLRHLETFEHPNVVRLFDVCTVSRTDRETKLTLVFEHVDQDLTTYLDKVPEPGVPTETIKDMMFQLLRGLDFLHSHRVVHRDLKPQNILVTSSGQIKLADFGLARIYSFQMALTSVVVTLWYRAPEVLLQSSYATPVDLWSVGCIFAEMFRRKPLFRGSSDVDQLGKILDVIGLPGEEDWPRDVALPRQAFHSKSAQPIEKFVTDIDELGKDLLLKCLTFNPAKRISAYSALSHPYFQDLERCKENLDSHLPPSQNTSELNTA

[3] = target: T3, panel of 370 protein kinases (Homo sapiens, UniProt P29323); details: kinase EPHB2
T3 construct: purchased Reaction Biology Corporation (assay service)
T3 sequence (P29323 19-1055): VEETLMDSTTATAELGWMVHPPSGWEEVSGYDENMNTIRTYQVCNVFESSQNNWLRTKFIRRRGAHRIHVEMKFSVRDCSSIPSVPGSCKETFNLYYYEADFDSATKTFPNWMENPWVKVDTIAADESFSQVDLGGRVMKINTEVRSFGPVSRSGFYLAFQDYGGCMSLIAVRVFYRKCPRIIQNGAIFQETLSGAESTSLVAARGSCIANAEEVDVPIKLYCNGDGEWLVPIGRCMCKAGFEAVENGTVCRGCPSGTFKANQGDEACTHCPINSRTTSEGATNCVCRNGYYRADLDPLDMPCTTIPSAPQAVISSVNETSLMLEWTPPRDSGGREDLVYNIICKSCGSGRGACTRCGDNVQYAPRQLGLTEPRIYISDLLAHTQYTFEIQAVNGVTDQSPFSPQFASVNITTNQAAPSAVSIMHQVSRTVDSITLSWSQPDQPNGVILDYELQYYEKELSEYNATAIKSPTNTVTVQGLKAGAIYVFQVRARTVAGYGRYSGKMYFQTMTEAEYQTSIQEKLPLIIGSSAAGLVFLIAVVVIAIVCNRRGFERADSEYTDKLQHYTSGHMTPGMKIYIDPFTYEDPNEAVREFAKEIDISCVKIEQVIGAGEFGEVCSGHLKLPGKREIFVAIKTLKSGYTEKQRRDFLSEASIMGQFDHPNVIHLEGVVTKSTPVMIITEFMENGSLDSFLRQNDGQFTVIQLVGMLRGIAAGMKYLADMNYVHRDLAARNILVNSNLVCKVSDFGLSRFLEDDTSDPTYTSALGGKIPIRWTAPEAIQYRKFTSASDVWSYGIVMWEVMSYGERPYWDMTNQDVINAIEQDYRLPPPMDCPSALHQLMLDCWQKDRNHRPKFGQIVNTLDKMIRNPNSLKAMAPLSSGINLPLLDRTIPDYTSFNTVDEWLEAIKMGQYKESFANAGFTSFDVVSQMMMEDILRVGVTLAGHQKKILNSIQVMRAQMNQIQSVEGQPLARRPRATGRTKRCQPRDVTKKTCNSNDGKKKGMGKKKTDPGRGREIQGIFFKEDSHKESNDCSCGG

[4] = target: T4, panel of 370 protein kinases (Homo sapiens, UniProt O00311); details: 2 h, read-out: % Enzyme Activity (relative to DMSO controls), kinase CDC7/DBF4
T4 construct: purchased Reaction Biology Corporation (assay service)

[5] = target: T5, panel of 370 protein kinases (Homo sapiens, UniProt P12931); details: 2 h, kinase c-Src; read-out: % Enzyme Activity (relative to DMSO controls)
T5 construct: purchased Reaction Biology Corporation (assay service)

[6] = target: T6, panel of 370 protein kinases (Homo sapiens, UniProt Q9NQU5); details: 2 h, kinase PAK6; read-out: % Enzyme Activity (relative to DMSO controls)
T6 construct: purchased Reaction Biology Corporation (assay service)

[7] = target: T7, panel of 370 protein kinases (Homo sapiens, UniProt Q15139); details: 2 h, kinase PKCmu/PRKD1; read-out: % Enzyme Activity (relative to DMSO controls)
T7 construct: purchased Reaction Biology Corporation (assay service)
T7 sequence (Q15139 whole entry): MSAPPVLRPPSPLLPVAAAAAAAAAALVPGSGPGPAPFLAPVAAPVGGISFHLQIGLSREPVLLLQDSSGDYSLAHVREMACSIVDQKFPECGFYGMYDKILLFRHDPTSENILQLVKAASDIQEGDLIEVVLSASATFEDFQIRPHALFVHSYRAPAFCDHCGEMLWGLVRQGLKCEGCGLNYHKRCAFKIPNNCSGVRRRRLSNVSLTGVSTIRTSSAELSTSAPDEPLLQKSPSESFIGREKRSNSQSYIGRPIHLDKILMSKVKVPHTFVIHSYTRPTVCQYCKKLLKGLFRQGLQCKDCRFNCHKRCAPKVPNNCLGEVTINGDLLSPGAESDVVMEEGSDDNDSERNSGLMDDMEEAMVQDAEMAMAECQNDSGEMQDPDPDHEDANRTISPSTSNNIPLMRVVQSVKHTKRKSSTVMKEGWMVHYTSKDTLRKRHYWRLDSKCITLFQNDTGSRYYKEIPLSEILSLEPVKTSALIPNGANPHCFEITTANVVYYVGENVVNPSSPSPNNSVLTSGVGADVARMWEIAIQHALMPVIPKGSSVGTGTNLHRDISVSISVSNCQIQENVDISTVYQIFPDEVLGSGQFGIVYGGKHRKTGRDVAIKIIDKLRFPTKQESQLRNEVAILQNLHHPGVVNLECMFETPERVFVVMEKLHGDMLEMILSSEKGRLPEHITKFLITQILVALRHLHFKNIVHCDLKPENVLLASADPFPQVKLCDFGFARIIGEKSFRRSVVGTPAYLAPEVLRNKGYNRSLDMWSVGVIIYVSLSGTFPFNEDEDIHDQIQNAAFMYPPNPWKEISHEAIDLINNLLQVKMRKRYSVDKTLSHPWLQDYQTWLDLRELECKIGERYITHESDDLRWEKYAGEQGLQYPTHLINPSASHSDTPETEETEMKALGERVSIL

[8] = target: T8, panel of 370 protein kinases (Homo sapiens, UniProt Q8NEV4); details: 2 h, kinase MYO3A; read-out: % Enzyme Activity (relative to DMSO controls)
T8 construct: purchased Reaction Biology Corporation (assay service)

[9] = target: T9, panel of 370 protein kinases (Homo sapiens, UniProt P09769); details: 2 h, kinase FGR; read-out: % Enzyme Activity (relative to DMSO controls)
T9 construct: purchased Reaction Biology Corporation (assay service)
T9 sequence (P09769 whole entry): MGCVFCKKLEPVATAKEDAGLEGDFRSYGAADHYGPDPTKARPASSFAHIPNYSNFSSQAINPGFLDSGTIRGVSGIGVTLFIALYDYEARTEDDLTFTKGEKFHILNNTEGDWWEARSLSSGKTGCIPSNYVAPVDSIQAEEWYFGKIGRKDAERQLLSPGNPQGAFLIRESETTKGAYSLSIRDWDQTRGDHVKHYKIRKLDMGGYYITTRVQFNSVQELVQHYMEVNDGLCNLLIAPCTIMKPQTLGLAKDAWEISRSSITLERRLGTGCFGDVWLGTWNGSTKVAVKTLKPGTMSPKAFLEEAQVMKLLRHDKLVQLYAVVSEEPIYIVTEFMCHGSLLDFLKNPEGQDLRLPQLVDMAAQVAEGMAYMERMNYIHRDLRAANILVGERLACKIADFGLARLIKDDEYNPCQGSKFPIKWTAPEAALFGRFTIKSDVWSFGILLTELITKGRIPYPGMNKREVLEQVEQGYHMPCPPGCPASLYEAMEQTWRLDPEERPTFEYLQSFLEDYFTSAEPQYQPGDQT

[10] = target: T10, panel of 370 protein kinases (Homo sapiens, UniProt P15735); details: 2 h, kinase PHKg2; read-out: % Enzyme Activity (relative to DMSO controls)
T10 construct: purchased Reaction Biology Corporation (assay service)

[11] = target: T11, panel of 370 protein kinases (Homo sapiens, UniProt P54762); details: 2 h, kinase EPHB1; read-out: % Enzyme Activity (relative to DMSO controls)
T11 construct: purchased Reaction Biology Corporation (assay service)

[12] = target: T12, panel of 370 protein kinases (Homo sapiens, UniProt P36894); details: 2 h, kinase ALK3/BMPR1A; read-out: % Enzyme Activity (relative to DMSO controls)
T12 construct: purchased Reaction Biology Corporation (assay service)
T12 sequence (P36894 24-532): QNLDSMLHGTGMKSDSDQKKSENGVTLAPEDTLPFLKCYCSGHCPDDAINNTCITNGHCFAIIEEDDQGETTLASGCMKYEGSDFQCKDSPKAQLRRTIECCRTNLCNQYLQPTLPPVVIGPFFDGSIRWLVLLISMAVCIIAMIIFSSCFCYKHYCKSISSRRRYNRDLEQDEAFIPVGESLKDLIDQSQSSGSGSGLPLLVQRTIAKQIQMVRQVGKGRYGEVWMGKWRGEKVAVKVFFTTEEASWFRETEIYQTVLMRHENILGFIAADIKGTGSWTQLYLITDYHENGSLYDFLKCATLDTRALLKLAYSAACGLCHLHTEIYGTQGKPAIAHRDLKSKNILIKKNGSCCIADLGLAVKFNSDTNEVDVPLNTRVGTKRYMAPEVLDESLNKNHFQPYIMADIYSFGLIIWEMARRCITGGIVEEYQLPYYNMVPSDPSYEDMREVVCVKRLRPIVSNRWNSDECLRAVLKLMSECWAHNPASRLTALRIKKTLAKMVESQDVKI

[13] = target: T13, panel of 370 protein kinases (Homo sapiens, UniProt P34947); details: 2 h, kinase GRK5; read-out: % Enzyme Activity (relative to DMSO controls)
T13 construct: purchased Reaction Biology Corporation (assay service)

[14] = target: T14, panel of 370 protein kinases (Homo sapiens, UniProt Q8WXR4); details: 2 h, kinase MYO3b; read-out: % Enzyme Activity (relative to DMSO controls)
T14 construct: purchased Reaction Biology Corporation (assay service)

[15] = target: T15, panel of 370 protein kinases (Homo sapiens, UniProt Q9HBH9); details: 2 h, kinase MNK2; read-out: % Enzyme Activity (relative to DMSO controls)
T15 construct: purchased Reaction Biology Corporation (assay service)

[16] = target: T16, panel of 370 protein kinases (Homo sapiens, UniProt Q86UE8); details: 2 h, kinase TLK2; read-out: % Enzyme Activity (relative to DMSO controls)
T16 construct: purchased Reaction Biology Corporation (assay service)

[17] = target: T17, panel of 370 protein kinases (Homo sapiens, UniProt P49841); details: 2 h, kinase GSK3b; read-out: % Enzyme Activity (relative to DMSO controls)
T17 construct: purchased Reaction Biology Corporation (assay service)

[18] = target: T18, panel of 370 protein kinases (Homo sapiens, UniProt Q9BXA7); details: 2 h, kinase STK22D/TSSK1; read-out: % Enzyme Activity (relative to DMSO controls)
T18 construct: purchased Reaction Biology Corporation (assay service)
T18 sequence (Q9BXA7 whole entry): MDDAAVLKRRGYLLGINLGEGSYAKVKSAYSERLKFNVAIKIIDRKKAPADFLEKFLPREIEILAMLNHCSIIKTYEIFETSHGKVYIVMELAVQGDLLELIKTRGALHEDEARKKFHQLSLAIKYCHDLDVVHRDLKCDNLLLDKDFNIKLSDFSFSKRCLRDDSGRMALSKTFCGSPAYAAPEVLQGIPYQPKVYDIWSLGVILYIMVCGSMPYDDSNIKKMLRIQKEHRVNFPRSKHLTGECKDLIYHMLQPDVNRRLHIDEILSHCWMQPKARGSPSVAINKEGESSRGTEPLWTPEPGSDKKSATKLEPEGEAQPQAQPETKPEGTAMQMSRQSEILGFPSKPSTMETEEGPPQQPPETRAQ

[19] = target: T19, panel of 370 protein kinases (Homo sapiens, UniProt Q9Y6M4); details: kinase CK1G3
T19 construct: purchased Reaction Biology Corporation (assay service)
T19 sequence (Q9Y6M4 whole entry): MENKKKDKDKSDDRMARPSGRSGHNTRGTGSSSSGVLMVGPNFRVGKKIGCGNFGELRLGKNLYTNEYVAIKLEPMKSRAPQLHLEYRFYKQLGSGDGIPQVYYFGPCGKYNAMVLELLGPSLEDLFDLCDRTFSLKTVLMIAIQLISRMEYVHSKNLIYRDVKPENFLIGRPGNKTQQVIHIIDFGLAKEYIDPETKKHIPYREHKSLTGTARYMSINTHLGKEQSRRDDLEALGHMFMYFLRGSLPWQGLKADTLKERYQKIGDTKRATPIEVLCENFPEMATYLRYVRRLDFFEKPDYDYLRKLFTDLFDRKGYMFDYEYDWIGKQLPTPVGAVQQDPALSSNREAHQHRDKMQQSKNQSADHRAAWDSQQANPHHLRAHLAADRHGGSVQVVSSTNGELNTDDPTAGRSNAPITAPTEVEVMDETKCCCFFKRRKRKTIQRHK

[20] = target: T20, panel of 370 protein kinases (Homo sapiens, UniProt Q9Y243); details: 2 h, kinase AKT3; read-out: % Enzyme Activity (relative to DMSO controls)
T20 construct: purchased Reaction Biology Corporation (assay service)

[21] = target: T21, panel of 370 protein kinases (Homo sapiens, UniProt O00238); details: 2 h, kinase ALK6/BMPR1B; read-out: % Enzyme Activity (relative to DMSO controls)
T21 construct: purchased Reaction Biology Corporation (assay service)

## CCN1CCN(C(=O)c2ccc(Nc3ncc(F)c(-c4ccc5nc(N(C)C)sc5c4)n3)nc2)CC1 [YK-2-69]
[1]
  remaining activity at 1 µM: 112%
[2]; kinase CDK6/cyclin D1
  remaining activity at 1 µM: 8.21%
[2]; kinase CDK6/cyclin D3
  remaining activity at 1 µM: 71.9%
[3]
  % Enzyme Activity (relative to DMSO controls): 102.42% and 102.08%
[4]
  remaining activity at 1 µM: 121%
[5]
  remaining activity at 1 µM: 99.7%
[6]
  remaining activity at 1 µM: 105%
[7]
  remaining activity at 1 µM: 89.6%
[8]
  remaining activity at 1 µM: 103%
[9]
  remaining activity at 1 µM: 106%
[10]
  remaining activity at 1 µM: 97.9%
[11]
  remaining activity at 1 µM: 94%
[12]
  remaining activity at 1 µM: 168%
[13]
  remaining activity at 1 µM: 106%
[14]
  remaining activity at 1 µM: 106%
[15]
  remaining activity at 1 µM: 89.2%
[16]
  remaining activity at 1 µM: 91.4%
[17]
  remaining activity at 1 µM: 60.8%
[18]
  remaining activity at 1 µM: 91.2%
[19]
  % Enzyme Activity (relative to DMSO controls): 114.34% and 110.21%
[20]
  remaining activity at 1 µM: 88.2%
[21]
  remaining activity at 1 µM: 90.5%
